The term IC50 denotes the concentration that inhibits the measured activity by half.

We go through 17 compounds from article PMC10609608, “Design, Synthesis, In Vitro Biological Evaluation and In Silico Molecular Docking Study of Benzimidazole-Based Oxazole Analogues: A Promising Acetylcholinesterase and Butyrylcholinesterase Inhibitors” (Molecules, 2023).

Experiment [1] concerns the target butyrylcholinesterase (BuChE) (Homo sapiens, UniProt P06276). The experiment in a line: biochemical. Particulars: in vitro; donepezil as standard; read-out: BuChE IC50 ± SEM. The protocol: (§1) According to previously established protocols, in vitro AChE and BuChE inhibition profiles were evaluated with slight modifications.
In experiment [2] the target is acetylcholinesterase (AChE) (Homo sapiens, UniProt P22303). The experiment in a line: biochemical. The following applies: in vitro; donepezil as standard; read-out: AChE IC50 ± SEM. As for the experimental part:
as §1

Sequence of acetylcholinesterase (AChE) (P22303 32-614): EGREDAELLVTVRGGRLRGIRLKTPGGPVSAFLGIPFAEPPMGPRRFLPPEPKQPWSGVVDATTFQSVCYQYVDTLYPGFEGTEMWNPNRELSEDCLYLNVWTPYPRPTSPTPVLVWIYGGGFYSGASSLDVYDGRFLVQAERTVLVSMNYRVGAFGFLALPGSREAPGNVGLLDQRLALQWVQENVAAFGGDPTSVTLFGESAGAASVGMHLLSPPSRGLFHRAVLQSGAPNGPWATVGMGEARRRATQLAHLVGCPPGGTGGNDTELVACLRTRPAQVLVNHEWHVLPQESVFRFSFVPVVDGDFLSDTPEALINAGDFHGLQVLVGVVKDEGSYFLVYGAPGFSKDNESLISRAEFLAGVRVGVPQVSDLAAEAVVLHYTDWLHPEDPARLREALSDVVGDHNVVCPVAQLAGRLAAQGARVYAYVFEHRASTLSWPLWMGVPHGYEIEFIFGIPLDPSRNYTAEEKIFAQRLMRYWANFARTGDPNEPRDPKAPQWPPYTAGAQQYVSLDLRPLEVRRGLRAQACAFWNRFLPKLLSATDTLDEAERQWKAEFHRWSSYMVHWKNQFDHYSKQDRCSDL
Sequence of butyrylcholinesterase (BuChE) (P06276 29-602): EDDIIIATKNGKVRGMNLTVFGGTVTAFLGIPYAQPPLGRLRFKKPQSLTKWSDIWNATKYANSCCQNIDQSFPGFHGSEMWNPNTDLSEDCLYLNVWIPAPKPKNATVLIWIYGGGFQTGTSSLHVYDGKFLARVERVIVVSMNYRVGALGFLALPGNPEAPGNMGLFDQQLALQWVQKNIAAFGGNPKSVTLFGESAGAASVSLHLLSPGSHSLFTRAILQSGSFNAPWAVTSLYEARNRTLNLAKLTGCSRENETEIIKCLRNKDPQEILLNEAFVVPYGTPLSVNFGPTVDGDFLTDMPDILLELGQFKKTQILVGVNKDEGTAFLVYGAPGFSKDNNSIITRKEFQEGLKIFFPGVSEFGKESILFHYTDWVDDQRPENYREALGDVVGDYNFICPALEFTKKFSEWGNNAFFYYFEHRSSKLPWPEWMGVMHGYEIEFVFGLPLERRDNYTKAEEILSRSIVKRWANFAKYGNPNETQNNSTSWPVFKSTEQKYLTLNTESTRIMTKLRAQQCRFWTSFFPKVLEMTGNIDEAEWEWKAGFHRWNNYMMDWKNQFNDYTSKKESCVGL

Regarding `COc1ccc(/C(CSc2nc3ccccc3[nH]2)=N\Nc2nc(-c3ccccc3[N+](=O)[O-])co2)cc1` [Compound 1, (E)-2-(2-(2-((1H-Benzo[d]imidazol-2-yl)thio)-1-(4-methoxyphenyl)ethylidene)hydrazinyl)-4-(2-nitrophenyl)oxazole], the IC50 in experiment [1] was 1.8 ± 0.1 µM; in experiment [2] it was 1.1 ± 0.1 µM.
Consider `Cc1ccc(/C(CSc2nc3ccccc3[nH]2)=N\Nc2nc(-c3ccccc3[N+](=O)[O-])co2)cc1` [Compound 2, (E)-2-(2-(2-((1H-Benzo[d]imidazol-2-yl)thio)-1-(p-tolyl)ethylidene)hydrazinyl)-4-(2-nitrophenyl)oxazole], for which the IC50 in experiment [1] turned out to be 1.9 ± 0.1 µM; in experiment [2] it was 1.6 ± 0.01 µM.
The like results for `Cc1ccc(/C(CSc2nc3ccccc3[nH]2)=N\Nc2nc(-c3cccc([N+](=O)[O-])c3)co2)cc1` [Compound 3, (E)-2-(2-(2-((1H-Benzo[d]imidazol-2-yl)thio)-1-(p-tolyl)ethylidene)hydrazinyl)-4-(3-nitrophenyl)oxazole] were, in that order, 5.8 ± 0.1 µM and 4.4 ± 0.1 µM.
In the case of `Cc1ccc(/C(CSc2nc3ccccc3[nH]2)=N\Nc2nc(-c3ccc(C)cc3)co2)cc1` [Compound 4, (E)-2-(2-(2-((1H-Benzo[d]imidazol-2-yl)thio)-1-(p-tolyl)ethylidene)hydrazinyl)-4-(p-tolyl)oxazole], the IC50 in experiment [1] is 8.3 ± 0.2 µM; in experiment [2], 6.5 ± 0.2 µM.
The like results for `COc1cccc(-c2coc(N/N=C(/CSc3nc4ccccc4[nH]3)c3ccc(C)cc3)n2)c1` [Compound 5, (E)-2-(2-(2-((1H-Benzo[d]imidazol-2-yl)thio)-1-(p-tolyl)ethylidene)hydrazinyl)-4-(3-methoxyphenyl)oxazole] were, in that order, 11.5 ± 0.2 µM and 9.8 ± 0.2 µM.
For `Cc1ccc(/C(CSc2nc3ccccc3[nH]2)=N\Nc2nc(-c3ccc(Cl)c(Cl)c3)co2)cc1` [Compound 6, (E)-2-(2-(2-((1H-Benzo[d]imidazol-2-yl)thio)-1-(p-tolyl)ethylidene)hydrazinyl)-4-(3,4-dichlorophenyl)oxazole], the IC50 in experiment [1] came out at 1.1 ± 0.05 µM; in experiment [2] it was 0.4 ± 0.05 µM.
`CN(C)c1ccc(/C(CSc2nc3ccccc3[nH]2)=N\Nc2nc(-c3ccc(Br)cc3)co2)cc1` [Compound 7, (E)-4-(2-((1H-Benzo[d]imidazol-2-yl)thio)-1-(2-(4-(4-bromophenyl)oxazol-2-yl)hydrazono)ethyl)-N,N-dimethylaniline]: the IC50 came to 16.3 ± 0.3 µM in experiment [1] and 12.6 ± 0.3 µM in experiment [2].
The like results for `COc1ccccc1-c1coc(N/N=C(/CSc2nc3ccccc3[nH]2)c2ccc(C)cc2)n1` [Compound 8, (E)-2-(2-(2-((1H-Benzo[d]imidazol-2-yl)thio)-1-(p-tolyl)ethylidene)hydrazinyl)-4-(2-methoxyphenyl)oxazole] were, in that order, 7.2 ± 0.1 µM and 5.3 ± 0.2 µM.
As to `O=[N+]([O-])c1cccc(-c2coc(N/N=C(/CSc3nc4ccccc4[nH]3)c3ccccc3)n2)c1` [Compound 10, (E)-2-(2-(2-((1H-Benzo[d]imidazol-2-yl)thio)-1-phenylethylidene)hydrazinyl)-4-(3-nitrophenyl)oxazole], the IC50 in experiment [1] was determined as 2.1 ± 0.1 µM; in experiment [2], 1.4 ± 0.1 µM.
In the case of `O=[N+]([O-])c1cccc(-c2coc(N/N=C(/CSc3nc4ccccc4[nH]3)c3ccc(Cl)cc3)n2)c1` [Compound 11, (E)-2-(2-(2-((1H-Benzo[d]imidazol-2-yl)thio)-1-(4-chlorophenyl)ethylidene)hydrazi-nyl)-4-(3-nitrophenyl)oxazole], the results for the IC50 in experiment [1] and in experiment [2] were 1.2 ± 0.01 µM and 0.7 ± 0.05 µM, respectively.
Take `Cc1ccc(/C(CSc2nc3ccccc3[nH]2)=N\Nc2nc(-c3ccccc3)co2)cc1` [Compound 13, (E)-2-(2-(2-((1H-Benzo[d]imidazol-2-yl)thio)-1-(p-tolyl)ethylidene)hydrazinyl)-4-phenyloxazole]: the figures for the IC50 in experiment [1] and in experiment [2] were 9.7 ± 0.1 µM and 8.1 ± 0.1 µM, respectively.
Take `Cc1ccc(/C(CSc2nc3ccccc3[nH]2)=N\Nc2nc(-c3ccc(Cl)cc3Cl)co2)cc1` [Compound 14, (E)-2-(2-(2-((1H-Benzo[d]imidazol-2-yl)thio)-1-(p-tolyl)ethylidene)hydrazinyl)-4-(2,4-dichlorophenyl)oxazole]: the IC50 in experiment [1] amounted to 0.3 ± 0.05 µM; in experiment [2], 0.2 ± 0.05 µM.
Consider `COc1cccc(-c2coc(N/N=C(/CSc3nc4ccccc4[nH]3)c3ccccc3)n2)c1` [Compound 15, (E)-2-(2-(2-((1H-Benzo[d]imidazol-2-yl)thio)-1-phenylethylidene)hydrazinyl)-4-(3-methoxyphenyl)oxazole], for which the IC50 in experiment [1] was determined as 7.2 ± 0.1 µM; in experiment [2], 5.4 ± 0.1 µM.
Taken in the same sequence, the figures for `Cc1ccc(-c2coc(N/N=C(/CSc3nc4ccccc4[nH]3)c3ccc(-c4ccccc4)cc3)n2)cc1` [Compound 16, (E)-2-(2-(2-((1H-Benzo[d]imidazol-2-yl)thio)-1-([1,1′-biphenyl]-4-yl)ethylidene) Hydrazinyl)-4-(p-tolyl)oxazole] were 9.3 ± 0.1 µM and 6.1 ± 0.1 µM.
The like results for `O=[N+]([O-])c1ccccc1-c1coc(N/N=C(/CSc2nc3ccccc3[nH]2)c2ccccc2)n1` [Compound 17, (E)-2-(2-(2-((1H-Benzo[d]imidazol-2-yl)thio)-1-phenylethylidene)hydrazinyl)-4-(2-nitrophenyl)oxazole] were, in that order, 3.5 ± 0.1 µM and 2.5 ± 0.1 µM.
Regarding `O=[N+]([O-])c1ccccc1-c1coc(N/N=C(/CSc2nc3ccccc3[nH]2)c2ccc(Cl)cc2)n1` [Compound 18, (E)-2-(2-(2-((1H-Benzo[d]imidazol-2-yl)thio)-1-(4-chlorophenyl)ethylidene)hydrazinyl)-4-(2-nitrophenyl)oxazole], the figures for the IC50 in experiment [1] and in experiment [2] were 1.7 ± 0.1 µM and 0.8 ± 0.1 µM, respectively.
Take `COc1cccc(-c2coc(N/N=C(/CSc3nc4ccccc4[nH]3)c3ccc(Cl)cc3)n2)c1` [Compound 19, (E)-2-(2-(2-((1H-Benzo[d]imidazol-2-yl)thio)-1-(4-chlorophenyl)ethylidene)hydrazinyl)-4-(3-methoxyphenyl)oxazole]: the IC50 was found to be 3.7 ± 0.1 µM in experiment [1] and 2.7 ± 0.2 µM in experiment [2].
